Results as given in DBAASP.
Values after ≈ are worked out from the molar mass of the structure shown. Values joined by “and” are separate entries in the source; they are usually repeats but may differ in a detail not shown here. Equal entries are not always repeated.

Legend:
Test in all cases: ≥ marks a high value that may be exact or a test limit, other limits are often not marked, values filed in µg/mL are converted to µM
[1] = system: Staphylococcus aureus NBRC 12732
[2] = system: Saccharomyces cerevisiae NBRC 10217
[3] = system: Escherichia coli NBRC 14237
[4] = system: Pseudomonas aeruginosa NBRC 12582
[5] = system: Staphylococcus aureus ATCC BAA-44
[6] = system: Candida parapsilosis ATCC 22019
[7] = system: Staphylococcus aureus ATCC 33592
[8] = system: Bacillus subtilis ATCC 6633
[9] = system: Staphylococcus aureus ATCC 29213
[10] = system: Klebsiella pneumoniae ATCC 27736
[11] = system: Pseudomonas aeruginosa ATCC BAA-427
[12] = system: Escherichia coli ATCC 9637
[13] = system: Staphylococcus aureus ATCC 700699
[14] = system: Staphylococcus aureus ATCC 25923
Cryptococcus neoformans = system: Cryptococcus neoformans
[15] = system: Candida albicans ATCC 10231
[16] = system: Staphylococcus aureus ATCC 700698
[17] = system: Escherichia coli ATCC 25922
[18] = system: Staphylococcus aureus USA 300 LAC
[19] = system: Klebsiella pneumoniae ATCC 13883
[20] = system: Streptococcus mutans KCTC 3065
[21] = system: Enterococcus faecium ATCC 29212
[22] = system: Candida albicans ATCC 90028
[23] = system: Pseudomonas aeruginosa ATCC 27853
[24] = system: Vibrio vulnificus ATCC 29307
[25] = system: Malassezia furfur KCTC 7744
[26] = system: Escherichia coli O157:H7 ATCC 43895
[27] = system: Trichosporon beigelii KCTC 7707
[28] = system: Staphylococcus aureus ST88
[29] = system: Escherichia coli K12 MG1655
Bacillus subtilis 168 HT = system: Bacillus subtilis 168 HT
[30] = system: Staphylococcus haemolyticus 527
[31] = system: Escherichia coli NBRC 3972
[32] = system: Aspergillus oryzae NBRC 100959
[33] = system: Micrococcus luteus NBRC 3333
[34] = system: Candida viswanathii NBRC 10321
[35] = system: Staphylococcus epidermidis NBRC 12993
[36] = system: Pseudomonas aeruginosa 253
[37] = system: Pseudomonas aeruginosa 910
[38] = system: Pseudomonas aeruginosa PAO1
[39] = system: Pseudomonas aeruginosa 919
[40] = system: Escherichia coli ATCC 9723H
[41] = system: Staphylococcus aureus ATCC 6538P
Escherichia coli NDM = system: Escherichia coli NDM

CSCC[C@H](NC(=O)CNC(=O)[C@@H](NC(=O)[C@H](CCCCN)NC(=O)[C@H](C)NC(=O)CNC(=O)[C@@H](NC(=O)[C@H](CCCCN)NC(=O)[C@H](C)NC(=O)[C@H](C)NC(=O)[C@H](CCCCN)NC(=O)[C@H](CCCCN)NC(=O)[C@H](CC(C)C)NC(=O)[C@H](Cc1ccccc1)NC(=O)[C@H](CC(N)=O)NC(=O)[C@H](CC(C)C)NC(=O)[C@H](Cc1ccccc1)NC(=O)[C@H](CCCCN)NC(=O)CNC(=O)CNC(=O)[C@@H](N)CCCCN)C(C)C)C(C)C)C(=O)N[C@@H](C)C(=O)N[C@@H](C)C(=O)N[C@@H](CC(C)C)C(=O)NCC(=O)O [KGGKFLNFLKKAAKVGAKVGMAALG]
MIC [1]: 3.12 µM (≈ 7.83 µg/mL)
MIC [2]: 6.25 µM (≈ 15.7 µg/mL)
MIC [3]: 3.12 µM (≈ 7.83 µg/mL)
MIC [4]: 6.25 µM (≈ 15.7 µg/mL)

CC[C@H](C)[C@H](NC(=O)[C@H](CCCN=C(N)N)NC(=O)CNC(=O)[C@H](CC(C)C)NC(=O)[C@H](CCCCN)NC(=O)[C@H](CCCCN)NC(=O)[C@H](Cc1c[nH]c2ccccc12)NC(=O)[C@H](Cc1ccccc1)NC(=O)[C@H](CO)NC(=O)[C@H](CCCCN)NC(=O)[C@@H](NC(=O)[C@@H](N)Cc1ccccc1)C(C)C)C(=O)N[C@@H](CC(C)C)C(N)=O [FVKSFWKKLGRIL]
MIC [5]: 12 µM (≈ 19.5 µg/mL)
MIC [6]: 6 µM (≈ 9.73 µg/mL)
MIC [7]: 12 µM (≈ 19.5 µg/mL)
MIC [8]: 3.8 µM (≈ 6.16 µg/mL)
MIC [9]: 12 µM (≈ 19.5 µg/mL)
MIC [10]: 3.8 µM (≈ 6.16 µg/mL)
MIC [11]: 6.8 µM (≈ 11 µg/mL)
MIC [12]: 6.25 µM (≈ 10.1 µg/mL)
MIC [13]: 12 µM (≈ 19.5 µg/mL)
MIC [14]: 3.8 µM and 7.6 µM
MIC (Cryptococcus neoformans): 6 µM (≈ 9.73 µg/mL)
MIC [15]: 6 µM (≈ 9.73 µg/mL)
MIC [16]: 12 µM (≈ 19.5 µg/mL)
MIC [17]: 1.9 µM (≈ 3.08 µg/mL)

CC[C@H](C)[C@H](N)C(=O)N[C@@H](Cc1c[nH]c2ccccc12)C(=O)N[C@@H](Cc1c[nH]c2ccccc12)C(=O)N[C@@H](Cc1c[nH]c2ccccc12)C(=O)N[C@@H](Cc1c[nH]c2ccccc12)C(=O)N[C@@H](CC(C)C)C(=O)N[C@@H](CCCN=C(N)N)C(=O)N[C@@H](CCCCN)C(N)=O [IWWWWLRK]
MIC [18]: 3.1 µM (≈ 3.94 µg/mL)
MIC [19]: 17.7 µM (≈ 22.5 µg/mL)
MIC [17]: 12.5 µM (≈ 15.9 µg/mL)

CC(C)C[C@H](N)C(=O)N[C@@H](CCCN=C(N)N)C(=O)N[C@@H](CCC(N)=O)C(=O)N[C@@H](CO)C(=O)N[C@@H](CCC(N)=O)C(=O)N[C@@H](Cc1ccccc1)C(=O)N[C@H](C(=O)NCC(=O)N[C@@H](CO)C(=O)N[C@@H](CCCN=C(N)N)C(N)=O)C(C)C [LRQSQFVGSR]
MIC [20]: 21.3 µM (≈ 25.1 µg/mL)
MIC [21]: 21.3 µM (≈ 25.1 µg/mL)
MIC [22]: ≥ 42.5 µM
MIC [23]: 21.3 µM (≈ 25.1 µg/mL)
MIC [24]: ≥ 42.5 µM
MIC [25]: ≥ 42.5 µM
MIC [26]: 10.6 µM (≈ 12.5 µg/mL)
MIC [14]: 42.5 µM (≈ 50 µg/mL)
MIC [27]: 21.3 µM (≈ 25.1 µg/mL)

CC[C@H](C)[C@H](N)C(=O)N[C@H](C(=O)N[C@@H](CCCCN)C(=O)N[C@@H](CCCN=C(N)N)C(=O)N[C@@H](Cc1ccccc1)C(=O)N[C@@H](Cc1ccccc1)C(=O)N[C@@H](CCCN=C(N)N)C(=O)N[C@H](C(=O)N[C@@H](CO)C(=O)N[C@@H](Cc1ccc(O)cc1)C(=O)N[C@@H](CCCCN)C(=O)N[C@@H](CC(C)C)C(=O)N[C@@H](CCC(N)=O)C(=O)N[C@@H](CO)C(=O)N[C@@H](CC(C)C)C(=O)N[C@@H](CCCCN)C(=O)N[C@H](C(=O)N[C@H](C(=O)N[C@@H](CCCCN)C(=O)NCC(=O)N[C@@H](CCCCN)C(=O)N[C@@H](CCCN=C(N)N)C(=O)N[C@H](C(=O)N[C@@H](Cc1ccccc1)C(=O)N[C@H](C(=O)O)[C@@H](C)O)[C@@H](C)O)[C@@H](C)CC)[C@@H](C)CC)[C@@H](C)CC)C(C)C [IVKRFFRISYKLQSLKIIKGKRTFT]
MIC [28]: ≥ 100 µM
MIC [29]: 10.5 µM (≈ 32.3 µg/mL)
MIC (Bacillus subtilis 168 HT): 5.3 µM (≈ 16.3 µg/mL)
MIC [30]: 5.3 µM (≈ 16.3 µg/mL)

CSCC[C@H](NC(=O)[C@H](CCCCN)NC(=O)[C@@H](N)CCCN=C(N)N)C(=O)N[C@@H](CCCCN)C(=O)N[C@@H](CCCN=C(N)N)C(=O)N[C@H](C(=O)N[C@@H](Cc1c[nH]c2ccccc12)C(=O)N[C@@H](CCCCN)C(=O)N[C@@H](CCCN=C(N)N)C(=O)N[C@@H](Cc1ccccc1)C(=O)N[C@@H](CCCCN)C(=O)N[C@@H](CC(C)C)C(=O)O)C(C)C [RKMKRVWKRFKL]
MIC [31]: ≥ 239 µM
MIC [32]: 14.9 µM (≈ 25 µg/mL)
MIC [33]: 29.8 µM (≈ 50 µg/mL)
MIC [34]: 14.9 µM (≈ 25 µg/mL)
MIC [35]: 14.9 µM (≈ 25 µg/mL)

CC[C@H](C)[C@H](NC(=O)[C@@H](N)Cc1ccccc1)C(=O)N[C@@H](CCCCN)C(=O)N[C@@H](Cc1c[nH]c2ccccc12)C(=O)N[C@@H](CCCCN)C(=O)N[C@@H](CCCCN)C(=O)N[C@@H](CCCN=C(N)N)C(=O)N[C@@H](Cc1c[nH]c2ccccc12)C(=O)N[C@@H](Cc1c[nH]c2ccccc12)C(=O)N[C@@H](CCCCN)C(=O)N[C@@H](CCCCN)C(=O)N[C@@H](CCCN=C(N)N)C(=O)N[C@H](C(N)=O)[C@@H](C)O [FIKWKKRWWKKRT]
MIC [36]: 16 µM (≈ 30.2 µg/mL)
MIC [37]: 8 µM (≈ 15.1 µg/mL)
MIC [38]: 4 µM (≈ 7.56 µg/mL)
MIC [39]: ≥ 32 µM

CC[C@H](C)[C@H](NC(=O)[C@@H](NC(=O)[C@@H]1CCCN1C(=O)[C@H](CC(C)C)NC(=O)[C@H](Cc1ccccc1)NC(=O)[C@H](CCCCN)NC(=O)[C@H](CC(N)=O)NC(=O)[C@H](C)NC(=O)[C@H](CC(C)C)NC(=O)[C@@H]1CCCN1C(=O)[C@H](CC(C)C)NC(=O)[C@@H](NC(=O)[C@H](CCCN=C(N)N)NC(=O)[C@@H]1CCCN1C(=O)[C@H](Cc1ccccc1)NC(=O)[C@@H](N)Cc1ccccc1)C(C)C)[C@@H](C)O)C(=O)N[C@@H](Cc1ccc(O)cc1)C(=O)N[C@@H](CS)C(=O)N[C@@H](C)C(=O)N[C@@H](CC(C)C)C(=O)N1CCC[C@H]1C(=O)N[C@@H](CCCCN)C(=O)N[C@@H](CO)C(=O)N[C@H](C(=O)NCC(=O)N[C@@H](CC(N)=O)C(=O)O)C(C)C [FFPRVLPLANKFLPTIYCALPKSVGN]
MIC [40]: 15.6 µM (≈ 45.2 µg/mL)
MIC [41]: ≥ 88 µM
MIC (Escherichia coli NDM): 6 µM (≈ 17.4 µg/mL)
MIC [17]: 6 µM (≈ 17.4 µg/mL)
